The values below come from US11878975B2, “Substituted indole compounds useful as TLR inhibitors” (BRISTOL-MYERS SQUIBB COMPANY, priority 2017, dated 2024).

What all share (assay type): cell-based
The target of one experiment is T1, human TLR7 (Homo sapiens, UniProt Q9NYK1).
T1 construct: host or cells: HEK-Blue cells
T1 sequence (Q9NYK1 27-1049): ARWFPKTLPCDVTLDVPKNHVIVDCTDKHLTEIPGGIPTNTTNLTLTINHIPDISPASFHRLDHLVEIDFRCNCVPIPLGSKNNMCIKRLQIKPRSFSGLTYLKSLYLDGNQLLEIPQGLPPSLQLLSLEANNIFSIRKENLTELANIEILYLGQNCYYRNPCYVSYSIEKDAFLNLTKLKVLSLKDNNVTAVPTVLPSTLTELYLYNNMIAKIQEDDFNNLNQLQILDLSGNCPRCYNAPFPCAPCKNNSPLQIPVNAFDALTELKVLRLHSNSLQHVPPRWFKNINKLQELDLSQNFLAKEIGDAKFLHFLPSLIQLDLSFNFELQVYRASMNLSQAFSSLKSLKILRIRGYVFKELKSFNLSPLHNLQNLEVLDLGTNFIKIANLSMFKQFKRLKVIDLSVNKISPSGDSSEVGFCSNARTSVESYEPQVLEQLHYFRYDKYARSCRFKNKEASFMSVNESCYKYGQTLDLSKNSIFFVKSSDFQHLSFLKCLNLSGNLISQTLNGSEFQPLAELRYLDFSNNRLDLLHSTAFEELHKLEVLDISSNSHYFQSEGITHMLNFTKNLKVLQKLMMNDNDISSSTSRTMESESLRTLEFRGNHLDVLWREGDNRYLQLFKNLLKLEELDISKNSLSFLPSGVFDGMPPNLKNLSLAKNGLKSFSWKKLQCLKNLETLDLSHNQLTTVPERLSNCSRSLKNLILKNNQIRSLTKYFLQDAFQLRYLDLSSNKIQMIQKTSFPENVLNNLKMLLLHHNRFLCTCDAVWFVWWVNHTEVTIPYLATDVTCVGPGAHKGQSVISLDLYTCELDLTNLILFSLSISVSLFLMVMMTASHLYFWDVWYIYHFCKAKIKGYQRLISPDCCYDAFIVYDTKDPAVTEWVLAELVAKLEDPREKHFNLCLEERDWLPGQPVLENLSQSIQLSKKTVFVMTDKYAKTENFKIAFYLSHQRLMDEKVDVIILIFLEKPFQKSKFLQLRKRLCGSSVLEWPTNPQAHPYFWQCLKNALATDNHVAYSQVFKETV
The experiment is described as follows: TLR7 inhibition reporter assay (HEK-Blue cells, SEAP reporter, gardiquimod stimulation). Particulars: HEK-Blue cells overexpressing human TLR7, SEAP reporter, gardiquimod 7.5 μM. The method in brief:
(§1)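 Ligand levels: TLR7 gardiquimod 7.5 μM, TLR8 R848 15.9 μM, TLR9 ODN2006 5 nM, added after 30 min room-temperature compound pre-incubation at 0.05 nM-50 μM. Reporter SEAP read with HEK-Blue Detection reagent after 22 h, 37° C. Inhibition expressed as % reduction relative to agonist-plus-DMSO and known-inhibitor controls.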
On the technique in general: Reporter assays use an easily measured gene product as a stand-in for the process of interest.

The target in another experiment is T2, human TLR8 (Homo sapiens, UniProt Q9NR97).
T2 construct: host or cells: HEK-Blue cells
T2 sequence (Q9NR97 27-1041): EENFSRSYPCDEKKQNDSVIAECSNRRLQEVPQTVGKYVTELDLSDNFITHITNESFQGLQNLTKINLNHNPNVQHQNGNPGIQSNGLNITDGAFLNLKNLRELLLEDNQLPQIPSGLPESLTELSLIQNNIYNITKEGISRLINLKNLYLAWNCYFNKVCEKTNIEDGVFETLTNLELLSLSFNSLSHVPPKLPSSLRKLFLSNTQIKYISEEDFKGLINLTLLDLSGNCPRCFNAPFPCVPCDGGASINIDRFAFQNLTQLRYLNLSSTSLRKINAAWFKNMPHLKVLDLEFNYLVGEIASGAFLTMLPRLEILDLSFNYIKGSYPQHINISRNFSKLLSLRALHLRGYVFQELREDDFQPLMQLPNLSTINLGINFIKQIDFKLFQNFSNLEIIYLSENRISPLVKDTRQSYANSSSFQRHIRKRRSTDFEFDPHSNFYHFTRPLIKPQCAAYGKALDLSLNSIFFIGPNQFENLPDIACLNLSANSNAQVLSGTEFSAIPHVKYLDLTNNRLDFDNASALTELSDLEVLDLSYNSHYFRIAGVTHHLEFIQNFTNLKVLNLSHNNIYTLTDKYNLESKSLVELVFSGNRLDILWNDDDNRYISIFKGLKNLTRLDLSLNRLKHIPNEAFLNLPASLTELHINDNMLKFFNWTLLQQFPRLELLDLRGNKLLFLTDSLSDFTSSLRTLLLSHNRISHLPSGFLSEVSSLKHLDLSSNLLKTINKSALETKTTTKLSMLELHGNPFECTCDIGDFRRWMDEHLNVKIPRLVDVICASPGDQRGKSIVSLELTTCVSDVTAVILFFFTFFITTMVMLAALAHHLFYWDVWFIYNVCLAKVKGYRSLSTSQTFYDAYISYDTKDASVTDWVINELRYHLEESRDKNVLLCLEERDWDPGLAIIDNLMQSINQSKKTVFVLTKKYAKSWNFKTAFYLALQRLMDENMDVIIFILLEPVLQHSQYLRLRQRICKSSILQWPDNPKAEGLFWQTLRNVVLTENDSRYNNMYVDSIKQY
The experiment is described as follows: TLR8 inhibition reporter assay (HEK-Blue cells, SEAP reporter, R848 stimulation). The settings on record: HEK-Blue cells overexpressing human TLR8, SEAP reporter, R848 15.9 μM. The method, boiled down:
as §1

The target of a further experiment is T3, human TLR9 (Homo sapiens, UniProt Q9NR96).
T3 construct: host or cells: HEK-Blue cells
T3 sequence (Q9NR96 26-1032): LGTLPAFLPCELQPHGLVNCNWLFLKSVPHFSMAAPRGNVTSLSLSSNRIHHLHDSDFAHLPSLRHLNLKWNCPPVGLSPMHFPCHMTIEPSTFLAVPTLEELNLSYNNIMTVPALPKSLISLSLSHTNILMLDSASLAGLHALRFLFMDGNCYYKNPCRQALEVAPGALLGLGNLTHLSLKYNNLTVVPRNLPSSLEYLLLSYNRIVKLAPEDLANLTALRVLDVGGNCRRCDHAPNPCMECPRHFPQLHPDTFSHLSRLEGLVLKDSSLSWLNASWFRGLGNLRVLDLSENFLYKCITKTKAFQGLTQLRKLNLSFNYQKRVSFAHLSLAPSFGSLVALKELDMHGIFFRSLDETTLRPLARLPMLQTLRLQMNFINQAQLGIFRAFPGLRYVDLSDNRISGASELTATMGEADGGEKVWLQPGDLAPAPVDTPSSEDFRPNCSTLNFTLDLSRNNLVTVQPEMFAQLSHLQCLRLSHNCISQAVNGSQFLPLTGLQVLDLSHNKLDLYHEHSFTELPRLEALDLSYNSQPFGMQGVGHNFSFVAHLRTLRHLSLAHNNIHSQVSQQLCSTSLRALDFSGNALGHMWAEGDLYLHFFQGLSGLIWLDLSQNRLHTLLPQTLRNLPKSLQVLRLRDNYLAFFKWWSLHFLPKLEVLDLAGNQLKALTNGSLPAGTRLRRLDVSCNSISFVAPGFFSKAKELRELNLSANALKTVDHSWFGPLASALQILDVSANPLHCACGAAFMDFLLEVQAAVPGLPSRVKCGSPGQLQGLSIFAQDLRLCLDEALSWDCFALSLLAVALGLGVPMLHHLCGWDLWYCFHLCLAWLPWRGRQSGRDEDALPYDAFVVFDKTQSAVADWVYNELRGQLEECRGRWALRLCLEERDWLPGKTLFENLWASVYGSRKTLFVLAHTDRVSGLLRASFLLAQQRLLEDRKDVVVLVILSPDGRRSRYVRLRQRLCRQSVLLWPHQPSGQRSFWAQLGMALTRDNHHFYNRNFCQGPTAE
The experiment is described as follows: TLR9 inhibition reporter assay (HEK-Blue cells, SEAP reporter, ODN2006 stimulation). The settings on record: HEK-Blue cells overexpressing human TLR9, SEAP reporter, ODN2006 5 nM. The method, boiled down:
as §1

Bounds are passed on as bounds.

As to `Cc1cc(-c2[nH]c3ccc([C@H]4C[C@H]4C(=O)NC4CCNCC4)cc3c2C(C)C)ccn1` [Example 456], the 50% inhibitory concentration (IC50) (commonly the midpoint of a concentration-inhibition curve) is 124 nM on human TLR7, 56 nM on human TLR8 and 224 nM on human TLR9.
On the same counts, the results for `Cc1cc(-c2[nH]c3ccc(C4CCCN(CC(=O)N(C)C)C4)cc3c2C(C)C)cc(C)n1` (stereo not drawn) [Example 235] are 40 nM, 12 nM and 693 nM.
The matching figures for `Cc1c(-c2[nH]c3ccc(C4CCC(NC5CC5)CC4)cc3c2C(C)C)cn2ncnc2c1C` (stereo not drawn) [Example 14]: 5 nM, 3.5 nM and 4080 nM.
The matching figures for `COc1cc(-c2[nH]c3ccc(C4CCC(NCC(=O)NC5COC5)CC4)cc3c2C(C)C)cn2ncnc12` (stereo not drawn) [Example 165]: 0.31 nM, 1.7 nM and 1990 nM.
Turning to `CNC1CCC(c2ccc3[nH]c(-c4cc(OC)c5ncnn5c4)c(C(C)C)c3c2)CC1` (single isomer, unassigned) [Example 145, 4-(3-isopropyl-2-(8-methoxy-[1,2,4]triazolo[1,5-a]pyridin-6-yl)-1H-indol-5-yl)-N-methylcyclohexanamine], the IC50 came to 0.22 nM against human TLR7, 0.73 nM on human TLR8 and 569 nM on human TLR9.
The matching figures for `COc1cc(-c2[nH]c3ccc(C4CCCNC4)cc3c2C(C)C)cn2ncnc12` (single isomer, unassigned) [Example 183]: 2 nM, 7.9 nM and 4630 nM.
As to `COc1cc(-c2[nH]c3ccc(C4CCC(N(C)C(=O)CN(C)C)CC4)cc3c2C(C)C)cn2ncnc12` (stereo not drawn) [Example 147, 2-(dimethylamino)-N-(4-(3-isopropyl-2-(8-methoxy-[1,2,4]triazolo[1,5-a]pyridin-6-yl)-1H-indol-5-yl)cyclohexyl)-N-methylacetamide], the IC50 at human TLR7 was 0.43 nM; on human TLR8, 5.1 nM; at human TLR9, 1490 nM.
`COc1cc(-c2[nH]c3ccc(C4CCC(N5CC(F)C5)CC4)cc3c2C(C)C)cn2ncnc12` (stereo not drawn) [Example 23]: the figures for the concentration for half-maximal inhibition (IC50) against human TLR7, against human TLR8 and at human TLR9 were 2 nM, 9.2 nM and 2840 nM, respectively.
As for `COc1cc(-c2[nH]c3ccc(C4CCC(N(C)CCS(C)(=O)=O)CC4)cc3c2C(C)C)cn2ncnc12` (stereo not drawn) [Example 150, 4-(3-isopropyl-2-(8-methoxy-[1,2,4]triazolo[1,5-a]pyridin-6-yl)-1H-indol-5-yl)-N-methyl-N-(2-(methylsulfonyl)ethyl)cyclohexanamine], the IC50 against human TLR7 was 0.35 nM; at human TLR8 it was 0.44 nM; at human TLR9, 1680 nM.
As to `Cc1cc(-c2[nH]c3ccc(C4CCC(N5CCN(C)CC5)CC4)cc3c2C(C)C)cc(C)n1` (single isomer, unassigned) [Example 36], the IC50 against human TLR7 amounted to 2 nM; at human TLR8, 3.9 nM; on human TLR9 it was 417 nM.
On the same counts, the results for `Cc1cc(-c2[nH]c3ccc(C4CCCNC4)cc3c2C(C)C)cc(C)n1` (stereo not drawn) [Example 186] are 4 nM, 3.6 nM and 280 nM.
With `CNC1CCC(c2ccc3[nH]c(-c4cn5ncnc5c(C)c4C)c(C(C)C)c3c2)CC1` (stereo not drawn) [Example 89], the IC50 was determined as 0.23 nM against human TLR7, 0.58 nM against human TLR8 and 1320 nM on human TLR9.
Take `Cc1c(-c2[nH]c3ccc(C4CN(C)C4)cc3c2C(C)C)cn2cnnc2c1C` [Example 533]: the values for the concentration for half-maximal inhibition (IC50) on human TLR7, on human TLR8 and against human TLR9 were 8 nM, 42 nM and 2180 nM, respectively.
As to `CNC(=O)CN1CCOC(c2ccc3[nH]c(-c4cc(OC)c5ncnn5c4)c(C(C)C)c3c2)C1` (stereo not drawn) [Example 310], the IC50 against human TLR7 is 15 nM; against human TLR8, 57 nM; against human TLR9, greater than 50000 nM.
In the case of `CNC(=O)CNC1CCC(c2ccc3[nH]c(-c4cc(C)c5ncnn5c4)c(C(C)C)c3c2)CC1` (single isomer, unassigned) [Example 162, 2-((4-(3-isopropyl-2-(8-methyl-[1,2,4]triazolo[1,5-a]pyridin-6-yl)-1H-indol-5-yl)cyclohexyl)amino)-N-methylacetamide], the half-inhibitory concentration (IC50) against human TLR7 stood at 0.56 nM; against human TLR8, 1.2 nM; on human TLR9, 2110 nM.
On to `Cc1cc(-c2[nH]c3ccc(C4CCC(OC5CCNCC5)CC4)cc3c2C(C)C)ccn1` (stereo not drawn) [Example 503], for which the IC50 at human TLR7 worked out at 28 nM; at human TLR8, 44 nM; against human TLR9, 2860 nM.
Consider `CCc1c(-c2ccnc(C)c2)[nH]c2ccc(CNC(=O)CCN(C)C)cc12` [Example 395, 3-(dimethylamino)-N-{[3-ethyl-2-(2-methylpyridin-4-yl)-1H-indol-5-yl]methyl}propanamide], for which the values for the IC50 on human TLR7, against human TLR8 and against human TLR9 were 966 nM, 182 nM and 823 nM, respectively.
Take `Cc1cc(-c2[nH]c3ccc(C4CCCN(C(=O)C5CNC5)C4)cc3c2C(C)C)cc(C)n1` (stereo not drawn) [Example 215]: the IC50 turned out to be 19 nM against human TLR7, 123 nM at human TLR8 and 677 nM against human TLR9.
